{
  "source": "paper PMC12311725",
  "about": "“Identification of Ginsentide-like Peptides from Cacao Beans with Oxidative Stress Protection” (ACS Omega, 2025)",
  "tested_on": "HaCaT cells",
  "test": "Tandem-mass-tag (TMT) quantitative proteomic profiling",
  "format": "cell-based, human",
  "details": "serum starved overnight, 10 μM tC1 for 24 h, versus untreated",
  "method": "Tandem-mass tag quantitative proteomic profiling was performed according to the manufacturer’s instructions . Briefly, HaCaT cells treated with or without cocotide tC1 were harvested and lysed by sonication for 3 min at 25% amplitude with a 2-s-on, 3-s-off pulse time in 8 M urea and 10 mM ammonium bicarbonate supplemented with a protease inhibitor. After centrifugation, quantification of the total proteins was performed by the BCA method. A total of 100 μg of protein from each condition was subjected to in-solution digestion before labeling the resultant peptides using the TMT-10plex Isobaric Label Reagent Set (Thermo Scientific, Rockford, IL, USA) according to the manufacturer’s protocol. […] Eluate was collected in 1 min fractions and strategically pooled via concatenation based on absorbance measurements at a wavelength of 280 nm. […]\nThe fractionated peptides were separated and analyzed using a Dionex Ultimate 3000 RSLCnano system coupled to a Q Exactive instrument (Thermo Fisher Scientific, MA, USA). […] Peptides were then analyzed on a Q Exactive apparatus with an EASY nanospray source (Thermo Fisher Scientific) at an electrospray potential of 1.8 kV. […] Raw data files were processed, searched, and TMT 10-plex was selected as the quantification method using Peaks Studio 11 with the UniProt human proteome (Proteome ID: UP000005640) as the reference proteome. […]",
  "note": "Where a SMILES comes first, the peptide text is derived from it. Bridges are numbered along the chain shown (N, C = ends).",
  "data": [
    {"smiles": "CC[C@H](C)[C@@H]1NC(=O)CNC(=O)[C@H](CCSC)NC(=O)[C@@H]2CCCN2C(=O)[C@H](Cc2ccc(O)cc2)NC(=O)[C@H](CC(C)C)NC(=O)[C@@H]2CSSC[C@@H]3NC(=O)[C@H](Cc4ccccc4)NC(=O)CNC(=O)CNC(=O)[C@H](C)NC(=O)[C@H](CO)NC(=O)[C@H](CC(C)C)NC(=O)[C@@H](N)CSSC[C@@H]4NC(=O)[C@H](CSSC[C@H](NC1=O)C(=O)N[C@@H](Cc1ccc(O)cc1)C(=O)NCC(=O)N[C@@H](CO)C(=O)NCC(=O)N[C@H](C(=O)O)CSSC[C@H](NC(=O)[C@H](CC(N)=O)NC(=O)CNC4=O)C(=O)NCC(=O)N2)NC(=O)[C@H](CC(=O)O)NC(=O)[C@H](CCSC)NC(=O)[C@@H]1CCCN1C(=O)[C@H](CC(N)=O)NC(=O)[C@H](Cc1ccccc1)NC(=O)[C@H](CCSC)NC3=O", "note": "[cocotide tC1] (H-CLSAGGFCMFNPMDCCGNCGCLYPMGICYGSGC-OH; disulfide 1-16, 8-21, 15-28, 19-33; N-terminus and C-terminus assumed)", "values": [
      {"measurement": "number of downregulated proteins (minimum 2-fold, significance value >15)", "value": 3, "unit": "proteins"},
      {"measurement": "number of upregulated proteins (minimum 2-fold, significance value >15)", "value": 19, "unit": "proteins"}
    ]}
  ]
}
